What was measured:
Format in all cases: cell-based
[1] = tested on: MS1 (T antigen-immortalized endothelial cells); experiment: Farnesyl transferase inhibition, cell motility assay in MS1; conditions: FTI-277 10 mm, time zero and four hours, versus control
Experimental: (§1) Using standard protocols, MS1 (T antigen-immortalized endothelial cells, ATCC) and SVR (H-ras-overexpressing derivative of MS1, ATCC) were plated into macrowells at densities of 12×10^3 and 6×10^3 cells/cm^2, respectively, in DMEM/5% fetal bovine serum. Unattached cells were washed off after 1 hour, and the cells were replenished with fresh media. To the media was also added farnesyl transferase inhibitor (FTI-277, Calbiochem) to concentration of […]. Cells were cultured overnight under fresh media in an incubator at 37° C. and 5% CO2. At the start of experiment, the stencil/first layer was removed after first on the support to allow cell migration. At different time points (time zero and time four hours) images were taken and analyzed for effects of FTI-277 on cell motility. FIG. 21 contains the pictorial results of an assay showing farnesyl transferase inhibition in MS1 and SVR cells.

[2] = tested on: SVR (H-ras-overexpressing derivative of MS1); experiment: Farnesyl transferase inhibition, cell motility assay in SVR; conditions: SVR cells, FTI-277 10 mm, time zero and four hours, versus control
Experimental: as §1

[3] = tested on: 769-P cells (renal carcinoma); experiment: Inhibition of cell motility of renal cells via MMP inhibition, 769-P; conditions: various concentrations
Experimental: (§2) Two renal cell lines were used to study the effect of matrix metalloproteinase (MMP) inhibition on cell motility. Standard protocols were used to plate 100 769-P cells (renal carcinoma, purchased from ATCC) and HK-2 (proximal tubule cells from human kidney, from ATCC) in qualitative cell migration assay plate.
(§3) After allowing the cells to attach and spread for 8 hours, the stencil and the first layer were removed and MMP inhibitor (GM6001, Calbiochem) was added at various concentrations.

[4] = tested on: HK-2 (proximal tubule cells from human kidney); experiment: Inhibition of cell motility of renal cells via MMP inhibition, HK-2; conditions: HK-2, various concentrations
Experimental: as §2, §3

[5] = tested on: Human microvasular endothelial cells from lung (HMVEC-L); experiment: Microtubule experiments, cell motility/patterning assay; conditions: circular micro-orifice, versus control; agents 10 mg/ml in Example 8
Experimental: Alternatively, the test agent can be added before the cells have grown to confluency, i.e. the test agent is added to the cells before being patterned through the micro-orifices 300. If the test agent has no effect on cell motility, the cells will spread and achieve the shape of the micro-orifice 300. In FIGS. 16 and 17, a micro-orifice 300 is circular in shape. In the left column of FIGS. 16 and 17 are the control panel, which illustrate the cells having grown to a confluent circular pattern.
A first layer 150 having multiple orifices was applied to a support 140. The orifices ([…]) were rendered inert to the adsorption of proteins and the adhesion of cells using the standard procedures described in earlier disclosures: silanes terminated with ethylene glycol groups were reacted covalently with the surface of the PDMS devices. The stencil was washed three times with PBS, and vacuum was applied for two minutes to remove air bubbles. Human microvasular endothelial cells from lung (HMVEC-L, Clonetics/Biowhittaker), were seeded into the macro-wells of the stencil at a density of 5×10^3 cells/cm2 into the dishes in growth medium (EGM, Clonetics/Biowhittaker), and washed with fresh medium after an initial attachment period of 30 minutes to one hour. After an overnight incubation in the membranes, cells were treated with the following microtubule-disrupting agents: nocodazole (10 mg/ml), colchicine (10 mg/ml), vinblastine (10 mg/ml), or paclitaxel (10 mg/ml). Control cells were left untreated. Two different experiments were then performed. In the first experiment, cells were treated with the compounds while maintained within the macro-wells of the stencil. After two hours of treatment, the cells were imaged, the stencil was peeled off, and the cells were fixed with cold methanol (−20° C.) for ten minutes and washed three times with PBS. Immunofluorescence staining was performed using a monoclonal antibody to alpha-tubulin (1:100 dilution, DM1a, Sigma), followed by a FITC-conjugated goat anti-mouse antibody (25 mg/ml, Rockland Immunochemicals) and DAPI (3 mg/ml, Sigma) to stain the nucleus. Stained cells were mounted under a glass coverslip with Fluoromount G (Southern Biotechnology Associates) and imaged in a Zeiss fluorescence microscope.
In the second experiment, the stencil was peeled at the time of compound addition. After two hours of treatment, one set of samples was fixed and stained as described above. Another set of samples was left in the treatment compound and imaged over time, to monitor cell motility. Images were taken at 0, 2, 4, 8, and 24 hours. Cell motility was determined by taking the average diameter of the micro-regions, using ImageProPlus imaging software.

[6] = tested on: NIH-3T3 fibroblast cells; experiment: Cell migration/motility assay, 3T3/TAXOL; conditions: 2 hours and 5 hours after removal of first layer, versus control cells
Text: The cell migration/motility assay of the present invention allows one to study the effect of test agents and others both on cell motility and on cell shape. For example, cells may be patterned through micro-orifices, such as micro-orifices 300, of the first layer 150. The cells are allowed to attach to the support 140 and to grow to confluence. The walls of the micro-orifice 300 constrain the cell(s) and the cells take on the shape of the micro-orifice 300, e.g., circular. A test agent is applied through the micro-orifices 300 and is allowed to contact the cells. The first layer 150 is removed and the cells are observed. If the test agent affects cell movement, the cell will be “stuck” in place as it was patterned and may not change shape, i.e., it will remain circular if the patterning member had circular orifices. […] FIG. 15(b) is a graph of the effect of various concentrations of taxol on cell movement as performed by a cell migration/motility assay of the present invention.
Macro-wells orifices of a stencil engaged with a support were filled with PBS and a vacuum was applied for two minutes to remove air bubbles. NIH-3T3 fibroblast cells (prelabeled with green cell tracker, CMFDA, Molecular Probes) were collected in DMEM/10% bovine calf serum and plated in the macro-wells at a concentration of 2×10^4 cells/cm2. After one hour, unadhered cells were washed off with fresh medium. […]

[7] = tested on: endothelial cells; experiment: Cell motility assay using endothelial cells with agonists and antagonists (FIG. 25); conditions: FIG. 25A
Experimental: FIG. 25 depicts a particular cell motility assay using endothelial cells and agonists and antagonists of such cells. […] In FIG. 25B, the concentration of VEGF is fixed. An antibody to VEGF is added in various concentrations. […] When an inhibitor to the VEGF receptor is added, the cells migrate at a such slower rate as depicted in FIG. 25C. […] Normally enzyme inhibition screens involve proteins and their substrates and not cells. FIG. 25D depicts enzyme inhibition screens in a cell based context.

COC(=O)[C@H](CCSC)NC(=O)c1ccc(NC[C@@H](N)CS)cc1-c1ccccc1 [FTI-277]
cell migration away from original starting positions [1]: control cells are shown to have migrated further away from their original starting positions than the cells treated with FTI | cell migration away from original starting positions [2]: control cells are shown to have migrated further away from their original starting positions than the cells treated with FTI

CNC(=O)[C@H](Cc1c[nH]c2ccccc12)NC(=O)[C@@H](CC(=O)NO)CC(C)C [GM6001]
cell motility [3]: reduces cell motility | cell motility [4]: no effect

COc1cc2c(c(OC)c1OC)-c1ccc(OC)c(=O)cc1[C@@H](NC(C)=O)CC2 [colchicine]
cellular movement / achieving circular confluent pattern [5]: cellular movement arrested

COC(=O)Nc1nc2ccc(C(=O)c3cccs3)cc2[nH]1 [nocodazole]
cellular movement / achieving circular confluent pattern [5]: cellular movement arrested

CC(=O)O[C@H]1C(=O)[C@@]2(C)[C@H]([C@H](OC(=O)c3ccccc3)[C@]3(O)C[C@H](OC(=O)[C@H](O)[C@@H](NC(=O)c4ccccc4)c4ccccc4)C(C)=C1C3(C)C)[C@]1(OC(C)=O)CO[C@@H]1C[C@@H]2O [taxol, paclitaxel]
cell movement away from original pattern [6]: retained their original circular pattern | cellular movement / achieving circular confluent pattern [5]: cellular movement arrested

CC[C@]1(O)C[C@@H]2CN(CCc3c([nH]c4ccccc34)[C@@](C(=O)OC)(c3cc4c(cc3OC)N(C)[C@H]3[C@@](O)(C(=O)OC)[C@H](OC(C)=O)[C@]5(CC)C=CCN6CC[C@]43[C@@H]65)C2)C1 [vinblastine]
cellular movement / achieving circular confluent pattern [5]: cellular movement arrested

VEGF
cell migration [7]: stimulates cells to migrate

From patent US20070038384A1, “Devices and assays for monitoring/measuring cellular dynamics to create subject profiles from primary cells” (priority 2003, published 2007)
